From JPH07118153A, “抗ウレアーゼ剤” (Eisai Co Ltd, priority 1993, dated 1995)

Assays:
[1] = molecular target: T1, H. pylori-produced urease [H.pylori産生ウレアーゼ] (Helicobacter pylori, UniProt P69996); details: cited from earlier work; for inhibition of H. pylori-produced urease: Antimicrobial Agents and Chemotherapy, 37(4), 769-774, 1993
Target sequence in this assay (P69996 whole entry): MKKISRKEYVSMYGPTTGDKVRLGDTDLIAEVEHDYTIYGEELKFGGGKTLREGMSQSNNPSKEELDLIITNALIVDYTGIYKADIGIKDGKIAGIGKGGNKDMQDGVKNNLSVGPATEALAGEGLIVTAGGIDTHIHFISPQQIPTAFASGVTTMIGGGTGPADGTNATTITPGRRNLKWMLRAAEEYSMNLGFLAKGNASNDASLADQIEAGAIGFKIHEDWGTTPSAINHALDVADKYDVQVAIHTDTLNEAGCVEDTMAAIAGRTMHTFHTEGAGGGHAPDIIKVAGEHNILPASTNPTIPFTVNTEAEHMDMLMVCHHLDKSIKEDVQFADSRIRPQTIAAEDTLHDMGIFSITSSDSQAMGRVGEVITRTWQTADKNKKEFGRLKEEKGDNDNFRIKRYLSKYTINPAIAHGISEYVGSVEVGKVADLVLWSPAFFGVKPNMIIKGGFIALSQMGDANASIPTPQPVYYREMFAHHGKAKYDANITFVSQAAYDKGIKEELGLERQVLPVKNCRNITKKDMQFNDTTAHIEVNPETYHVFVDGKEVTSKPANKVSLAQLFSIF
Target sequence in this assay (P14916 whole entry, further chain): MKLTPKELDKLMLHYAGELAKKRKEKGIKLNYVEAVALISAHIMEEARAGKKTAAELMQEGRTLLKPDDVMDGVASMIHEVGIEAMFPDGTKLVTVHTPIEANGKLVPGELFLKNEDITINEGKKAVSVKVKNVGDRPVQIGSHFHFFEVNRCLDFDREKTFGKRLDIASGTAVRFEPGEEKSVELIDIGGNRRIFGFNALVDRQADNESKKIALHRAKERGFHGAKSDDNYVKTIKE

[2] = test system: a wide range of ureases [幅広い種類のウレアーゼ]; assay: Urease inhibition across ureases (tables 2 and 4 taken together); assay type: biochemical; details: from tables 2 and 4
[3] = molecular target: jack bean urease [なた豆ウレアーゼ] (Canavalia ensiformis, UniProt P07374); assay: Inhibition of jack bean urease (inhibition test example 1); assay type: biochemical; details: from tables 2 and 4
jack bean urease [なた豆ウレアーゼ], sequence (P07374 whole entry, looked up): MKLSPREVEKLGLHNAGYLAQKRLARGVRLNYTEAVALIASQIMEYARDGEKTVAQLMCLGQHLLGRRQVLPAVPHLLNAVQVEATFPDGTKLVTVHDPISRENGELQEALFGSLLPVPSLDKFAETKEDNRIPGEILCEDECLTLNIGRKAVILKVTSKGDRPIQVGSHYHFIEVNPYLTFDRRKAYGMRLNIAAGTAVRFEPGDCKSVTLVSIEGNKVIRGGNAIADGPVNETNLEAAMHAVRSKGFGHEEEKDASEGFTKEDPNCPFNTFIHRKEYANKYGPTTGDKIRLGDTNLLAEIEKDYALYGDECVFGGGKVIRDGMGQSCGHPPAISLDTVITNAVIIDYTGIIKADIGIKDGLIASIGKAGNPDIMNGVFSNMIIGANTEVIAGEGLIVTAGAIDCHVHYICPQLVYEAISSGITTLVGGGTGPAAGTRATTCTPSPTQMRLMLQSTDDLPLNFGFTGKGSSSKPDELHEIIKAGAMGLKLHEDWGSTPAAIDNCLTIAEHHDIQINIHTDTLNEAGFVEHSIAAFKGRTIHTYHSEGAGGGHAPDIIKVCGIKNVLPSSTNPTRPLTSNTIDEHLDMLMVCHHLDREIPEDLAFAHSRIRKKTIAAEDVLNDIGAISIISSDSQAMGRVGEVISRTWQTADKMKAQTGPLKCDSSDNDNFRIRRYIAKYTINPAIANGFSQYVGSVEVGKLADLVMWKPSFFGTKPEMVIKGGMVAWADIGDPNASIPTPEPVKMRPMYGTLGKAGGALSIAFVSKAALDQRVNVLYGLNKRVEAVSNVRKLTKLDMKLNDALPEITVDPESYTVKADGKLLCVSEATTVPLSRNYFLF

[4] = Acute toxicity test, single dose, intravenous and oral; assay type: in vivo, Slc:SD rats and Slc:ICR mice; details: rats and mice
[5] = molecular target: T1, H. pylori-produced urease [H.pylori産生ウレアーゼ]; assay type: biochemical, Helicobacter pylori (ATCC43504)
Target sequence in this assay (P69996 whole entry, looked up): as the sequence (P69996 whole entry) above

Structure (SMILES) | inhibition of H. pylori-produced urease [1] | anti-urease activity relative to acetohydroxamic acid ([1]; disclosed in Antimicrobial Agents and Chemotherapy, compared with acetohydroxamic acid) [fold] | inhibitory action on a wide range of ureases [2] | inhibitory action on jack bean urease [3] | selectivity ratio ([4]; in vivo, intravenous and oral, multiple of the clinical dose by oral administration, read-out: LD50 values relative to the oral clinical dose) | safety ([4]; judged from LD50 values) | H. pylori-produced urease inhibitory action [5] | activity relative to control substance (times stronger) ([5]; H. pylori-produced urease, control substance acetohydroxamic acid) [fold] | inhibitory activity on H. pylori-produced urease, compared with reference substances ([5]; versus acetohydroxamic acid, caprylohydroxamic acid, nicotinohydroxamic acid, benzohydroxamic acid, omeprazole and lansoprazole, from tables 2, 3 and 4)
COc1ccc2[nH]c([S+]([O-])Cc3ncc(C)c(OC)c3C)nc2c1 (stereo not shown) [オメプラゾール, 5−メトキシ−2−(4−メトキシ−3,5−ジメチルピリジン−2−イル)メチルスルフィニル−1H−ベンズイミダゾール] | 阻害する |  |  |  |  |  |  |  | 
Cc1c(OCC(F)(F)F)ccnc1C[S+]([O-])c1nc2ccccc2[nH]1 (stereo not shown) [ランソプラゾール, 2−[3−メチル−4−(2,2,2−トリフルオロエトキシ)ピリジン−2−イル]メチルスルフィニル−1H−ベンズイミダゾール] | 阻害する | ~2 |  |  |  |  |  |  | 
COCCCOc1ccnc(C[S+]([O-])c2nc3ccccc3[nH]2)c1C (stereo not shown) [本発明化合物, 2−[4−(3−メトキシプロポキシ)−3−メチルピリジン−2−イル]メチルスルフィニル−1H−ベンズイミダゾール] |  |  | 阻害作用を示した | 阻害作用も有しており | ≥ 5000 | 安全性は極めて高い | 阻害作用を有している | ~100 | 優れた阻害活性を有する
